Test results taken from PMC7714071, “Interaction of amyloid beta with humanin and acetylcholinesterase is modulated by ATP” (FEBS Open Bio, 2020).

Columns and labels:
[1] = test system: Aβ cytotoxicity; details: cited from earlier work
Text: Almost all types of cells produce amyloid beta (Aβ), a peptide well recognized for its role in the development and progression of different stages of Alzheimer's disease (AD). The Aβ peptide is ~ 4 kDa and derived from the sequential processing of the higher molecular weight amyloid precursor protein by two membrane‐bound endoproteases, β‐ and γ‐secretase. Different C‐terminal Aβ heterogeneity results from processing by γ‐secretase, where Aβ40 represents the most abundant isoform (~ 90%) as compared to Aβ42 (~ 10%). Self‐assembled Aβ40/42 peptides into amyloid fib ... || Soluble oligomers of proteins implicated in different diseases are primarily thought to be the main toxic form as opposed to the larger fibrillar assemblies. Aβ regions containing Tyr and Ser (H6DSGY10 and G25SNKG29) (Fig. 1) along with post‐translational modifications of these regions, have been implicated in misfolding, oligomerization, or fibril formation of Aβ [5, 10, 11, 16, 41]. […] Aβ proteins a ... || Acetylcholinesterase (AChE) is an enzyme known for its role in terminating acetylcholine‐mediated neurotransmission at the synaptic cleft. The majority of the cortical AChE in the Alzheimer's brain is mainly associated with the amyloid core of senile plaques. […]

[2] = test system: Aβ42; test: ELISA, binding of biotinylated-HN to immobilised Aβ42; details: Aβ 100 nM on wells, biotinylated-HN 300 nM, increasing HS; three independent assays; Fig. 2B
Method: ELISAs were carried out as we previously reported. Nunc MaxiSorp 96‐well flat bottom plate (Thermo Fisher) wells were coated with samples as indicated. The plates were incubated overnight at 4 °C on a shaker to allow binding of the samples to the plate wells. After the incubation, the wells were washed 4× with TBST, filled with 400 µL blocking buffer (110 mM KCl, 5 mM NaHCO3, 5 mM MgCl2, 1 mM EGTA, 0.1 mM CaCl2, 20 mM HEPES, 1% BSA, pH 7.4), and incubated with shaking overnight at 4 °C. The wells were then washed 4× with TBST, and 100 µL of sample at the desired concentration was added to each well and incubated with shaking overnight at 4 °C. TBST was then used to wash the wells 4× before proceeding in one of two ways: (a) biotinylated samples were analyzed by adding 100 µL streptavidin–HRP conjugate in TBST (1 : 2500 dilution) to the samples followed by incubation for 3 h at RT on a shaker, or (b) samples without biotin were analyzed by adding 100 µL TBST containing the primary antibody as per the manufacturer's recommendation, incubating for 3 h at RT on a shaker, followed by washing the wells 4× with TBST. […] The reaction was stopped with 100 µL 2 M H2SO4 after incubating at RT for 0.5–15 min, resulting in a yellow color change, measured by absorbance at 450 nm. […] Statistical analysis was determined by the […] […] Data were expressed as the mean ± SD. […]

[3] = test system: Aβ40; details: cited from earlier work
Text: Almost all types of cells produce amyloid beta (Aβ), a peptide well recognized for its role in the development and progression of different stages of Alzheimer's disease (AD). The Aβ peptide is ~ 4 kDa and derived from the sequential processing of the higher molecular weight amyloid precursor protein by two membrane‐bound endoproteases, β‐ and γ‐secretase. Different C‐terminal Aβ heterogeneity results from processing by γ‐secretase, where Aβ40 represents the most abundant isoform (~ 90%) as compared to Aβ42 (~ 10%). Self‐assembled Aβ40/42 peptides into amyloid fib ... || Humanin (HN) is a secreted 21‐ to 24‐amino acid mitochondrial‐derived peptide. Certain amino acid residues in HN have been identified to be involved in different functions, including binding to Aβ [55, 56]. […] HN was identified previously as a binding partner of Aβ, likely modulating its aggregation pathways and counteracting its deleterious effects. […] The specific epitopes at the binding interface between HN and Aβ40 were identified, by proteolytic epitope excision and extraction in addition to affinity–mass spectrometric data analysis, to be HN (5–15) and Aβ (17–28). […] Inhibiting the 17–28 region of Aβ reduced aggregation of the neurotoxic amyloid fibrils and related cytotoxicity in SH‐SY5Y, a human neuroblastoma cell ... || (+ 1 further places)

Nc1ncnc2c1ncn2[C@@H]1O[C@H](COP(=O)(O)OP(=O)(O)OP(=O)(O)O)[C@@H](O)[C@H]1O [ATP, Adenosine triphosphate]
effect on Aβ-mediated cytotoxicity [1]: protective

heparan sulfate [HS]
effect of HS on binding of HN to Aβ42 [2]: No effects

Humanin [HN]
morphology of Aβ40 [3]: from fibrillary to amorphous
